Source: patent US12612368B2 (Remedy Plan, Inc., priority 2019, dated 2026)
Where two headings read alike, the source gives them in different places.

Assays:
MV-4-11 cells = assay: Cell viability in MV-4-11 cells (CellTiter Glo2); format: cell-based; settings: Homo sapiens, MV4-11, 96 h, 8-point dose response, 4 days
Method: Approximately 10,000 MV-4-11 cells per well of a 96-well plate were treated with DMSO (no drug control) or each compound in Tables E1 and E2 in an 8-point dose response for 4 days, Cell viability was measured using CellTiter Glo2. The ICse of each compound was determined using CDD Vault.

NAMPT = target: T1, NAMPT (Homo sapiens, UniProt P43490); assay: NAMPT Activity Assay (Abcam #ab221819); format: biochemical; settings: purified NAMPT, two-step reaction, OD450 nm; percent inhibition vs no drug; compound concentration not stated
T1 construct: purchased Abcam ab221819
T1 sequence (P43490 whole entry): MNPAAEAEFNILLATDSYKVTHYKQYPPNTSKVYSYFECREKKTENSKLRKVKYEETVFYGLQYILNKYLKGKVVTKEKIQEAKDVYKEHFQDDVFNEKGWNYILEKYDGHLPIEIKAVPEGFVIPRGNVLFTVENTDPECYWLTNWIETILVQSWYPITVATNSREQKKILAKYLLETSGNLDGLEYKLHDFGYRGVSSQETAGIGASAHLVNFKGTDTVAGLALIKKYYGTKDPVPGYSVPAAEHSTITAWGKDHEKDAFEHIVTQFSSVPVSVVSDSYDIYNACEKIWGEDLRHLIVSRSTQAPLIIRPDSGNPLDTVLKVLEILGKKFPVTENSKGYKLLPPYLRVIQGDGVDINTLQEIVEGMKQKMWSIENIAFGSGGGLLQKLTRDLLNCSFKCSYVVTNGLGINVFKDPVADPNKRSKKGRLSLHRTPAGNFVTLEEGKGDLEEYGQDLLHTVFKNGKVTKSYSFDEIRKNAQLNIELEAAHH

[1] = CellTiter Glo2 (Table E2), read-out: MV-4-11 Cell Viability, MV-4-11 IC50
[2] = CellTiter Glo2 (Table E1), read-out: MV-4-11 IC50

IC50 (MV-4-11 cells; [1])	NAMPT Inhibition Code (NAMPT)	IC50 (MV-4-11 cells; [2])	SMILES
150 nM	B (B = ≥33 to <66% inhibition)		CC(=O)N(C)c1ccc(-c2ccc(C(=O)NCc3cccnc3)cn2)cc1C(F)(F)F [Compound I-658, 6-[4-[Acetyl(methyl)amino]-3-(trifluoromethyl)phenyl]-N-(3-pyridylmethyl)pyridine-3-carboxamide]
< 6.64 nM	C (C = ≥66% inhibition)		CC(=O)N(CC(C)C)c1ccc(-c2ccc(C(=O)NCc3cccnc3)cn2)cc1C [Compound I-594, 6-[4-[Acetyl(isobutyl)amino]-3-methyl-phenyl]-N-(3-pyridylmethyl)pyridine-3-carboxamide]
1.31 nM	C (C = ≥66% inhibition)		CC(=O)N(CC1CC1)c1ccc(-c2ccc(C(=O)Nc3ccc4nccn4c3)cn2)cc1Cl [Compound I-681, 6-[4-[Acetyl(cyclopropylmethyl)amino]-3-chloro-phenyl]-N-imidazo[1,2-a]pyridin-6-yl-pyridine-3-carboxamide]
20.6 nM	B (B = ≥33 to <66% inhibition)		CC(=O)N(CC1CC(F)(F)C1)c1ccc(-c2ccc(C(=O)NCc3cccnc3)cn2)cc1C [Compound I-600, 6-[4-[Acetyl-[(3,3-difluorocyclobutyl)methyl]amino]-3-methyl-phenyl]-N-(3-pyridylmethyl)pyridine-3-carboxamide]
336 nM	C (C = ≥66% inhibition)		CC(=O)N(CC1CC1)c1ccc(-c2ccc(C(=O)NCc3cncc(F)c3)cn2)cc1Cl [Compound I-690, 6-[4-[Acetyl(cyclopropylmethyl)amino]-3-chloro-phenyl]-N-[(5-fluoro-3-pyridyl)methyl]pyridine-3-carboxamide]
32.8 nM	C (C = ≥66% inhibition)		CC(=O)N(CC1CC1)c1ccc(-c2ccc(C(=O)NCc3ccc(Cl)nc3)cn2)cc1Cl [Compound I-689, 6-[4-[Acetyl(cyclopropylmethyl)amino]-3-chloro-phenyl]-N-[(6-chloro-3-pyridyl)methyl]pyridine-3-carboxamide]
1700 nM	B (B = ≥33 to <66% inhibition)		CC(=O)N(C)c1ccc(-c2ccc(C(=O)NCc3cccnc3)cn2)cc1C#N [Compound I-663, 6-[4-[Acetyl(methyl)amino]-3-cyano-phenyl]-N-(3-pyridylmethyl)pyridine-3-carboxamide]
3.28 nM	C (C = ≥66% inhibition)		CC(=O)N(CC(C)C)c1ccc(-c2ccc(C(=O)NCc3cccnc3)cn2)cc1Cl [Compound I-599, 6-[4-[Acetyl(isobutyl)amino]-3-chloro-phenyl]-N-(3-pyridylmethyl)pyridine-3-carboxamide]
> 997 nM	A (A = <33% inhibition)		CC(=O)N(CC1CC1)c1ccc(-c2ccc(C(=O)NCc3ccncc3)cn2)cc1Cl [Compound I-676, 6-[4-[Acetyl(cyclopropylmethyl)amino]-3-chloro-phenyl]-N-(4-pyridylmethyl)pyridine-3-carboxamide]
37 nM	B (B = ≥33 to <66% inhibition)		CC(=O)N(CC1COC1)c1ccc(-c2ccc(C(=O)NCc3cccnc3)cn2)cc1C [Compound I-610, 6-[4-[Acetyl(oxetan-3-ylmethyl)amino]-3-methyl-phenyl]-N-(3-pyridylmethyl)pyridine-3-carboxamide]
23.7 nM	C (C = ≥66% inhibition)		CC(=O)N(c1ccc(-c2ccc(C(=O)NCc3cccnc3)cn2)cc1F)C(C)C [Compound I-626, 6-[4-[Acetyl(isopropyl)amino]-3-fluoro-phenyl]-N-(3-pyridylmethyl)pyridine-3-carboxamide]
92.4 nM	C (C = ≥66% inhibition)		CCN(C(C)=O)c1ccc(-c2ccc(C(=O)NCc3cccnc3)cn2)cc1Cl [Compound I-652, 6-[4-[Acetyl(ethyl)amino]-3-chloro-phenyl]-N-(3-pyridylmethyl)pyridine-3-carboxamide]
5910 nM	A (A = <33% inhibition)		CC(=O)N(CC1COC1)c1ccc(-c2ccc(C(=O)NCc3cccnc3C)cn2)cc1C [Compound I-510, 6-[4-[Acetyl(oxetan-3-ylmethyl)amino]-3-methyl-phenyl]-N-[(2-methyl-3-pyridyl)methyl]pyridine-3-carboxamide]
5.56 nM	C (C = ≥66% inhibition)		CC(=O)N(CC1CC1)c1ccc(-c2ccc(C(=O)NCc3cccnc3)cn2)cc1Cl [Compound I-602, 6-[4-[Acetyl(cyclopropylmethyl)amino]-3-chloro-phenyl]-N-(3-pyridylmethyl)pyridine-3-carboxamide]

Further lines, the compound ahead of its results:

SMILES	IC50 (MV-4-11 cells; [1])	NAMPT Inhibition Code (NAMPT)	IC50 (MV-4-11 cells; [2])
CC(=O)N(C)c1ccc(-c2ccc(C(=O)NCc3cccnc3C)cn2)cc1C(F)(F)F [Compound I-455, 6-[4-[acetyl(methyl)amino]-3-(trifluoromethyl)phenyl]-N-[(2-methyl-3-pyridyl)methyl]pyridine-3-carboxamide]	3470 nM	A (A = <33% inhibition)	
CC(=O)N(C)c1ccc(-c2ccc(C(=O)NCc3cccnc3)cn2)cc1C [Compound I-425, 6-[4-[acetyl(methyl)amino]-3-methyl-phenyl]-N-(3-pyridylmethyl)pyridine-3-carboxamide]		A (A = <33% inhibition)	1670 nM
CC(=O)N(CC1CC(F)(F)C1)c1ccc(-c2ccc(C(=O)NCc3cccnc3C)cn2)cc1C [Compound I-485, 6-[4-[Acetyl-[(3,3-difluorocyclobutyl)methyl]amino]-3-methyl-phenyl]-N-[(2-methyl-3-pyridyl)methyl]pyridine-3-carboxamide]	1340 nM	A (A = <33% inhibition)	
CCC(=O)N(CCN)c1ccc(-c2ccc(C(=O)NCc3cccnc3)cn2)cc1C [Compound I-502, 6-[4-[2-aminoethyl(propanoyl)amino]-3-methyl-phenyl]-N-(3-pyridylmethyl)pyridine-3-carboxamide]	224 nM	A (A = <33% inhibition)	
CC(=O)N(CC1CC1)c1ccc(-c2ccc(C(=O)NCc3cccnc3C)cn2)cc1 [Compound I-500, 6-[4-[Acetyl(cyclopropylmethyl)amino]phenyl]-N-[(2-methyl-3-pyridyl)methyl]pyridine-3-carboxamide]	2280 nM	A (A = <33% inhibition)	
CCC(=O)N(CC(C)C)c1ccc(-c2ccc(C(=O)NCc3cccnc3)cn2)cc1 [Compound I-403, 6-[4-[isobutyl(propanoyl)amino]phenyl]-N-(3-pyridylmethyl)pyridine-3-carboxamide]		C (C = ≥66% inhibition)	< 11.7 nM
CC(=O)N(CC(C)C)c1ccc(-c2ccc(C(=O)NCc3cccnc3C)cn2)cc1Cl [Compound I-459, 6-[4-[acetyl(isobutyl)amino]-3-chloro-phenyl]-N-[(2-methyl-3-pyridyl)methyl]pyridine-3-carboxamide]	1510 nM	A (A = <33% inhibition)	
CCOC(=O)NCCN(C(C)=O)c1ccc(-c2ccc(C(=O)NCc3cccnc3C)cn2)cc1C [Compound I-486, Ethyl N-[2-[N-acetyl-2-methyl-4-[5-[(2-methyl-3-pyridyl)methylcarbamoyl]-2-pyridyl]anilino]ethyl]carbamate]	2700 nM	A (A = <33% inhibition)	
CCC(=O)N(C)c1ccc(-c2ccc(C(=O)NCc3cccnc3C)cc2)cc1Cl [Compound I-460, 4-[3-chloro-4-[methyl(propanoyl)amino]phenyl]-N-[(2-methyl-3-pyridyl)methyl]benzamide]	> 694 nM	A (A = <33% inhibition)	
CC(=O)N(CC1CC(F)(F)C1)c1ccc(-c2ccc(C(=O)NCc3cccnc3)cn2)cc1 [Compound I-412, 6-[4-[acetyl-[(3,3-difluorocyclobutyl)methyl]amino]phenyl]-N-(3-pyridylmethyl)pyridine-3-carboxamide]		B (B = ≥33 to <66% inhibition)	82.5 nM
CC(=O)N(CCC(F)(F)F)c1ccc(-c2ccc(C(=O)NCc3cccnc3C)cn2)cc1 [Compound I-499, 6-[4-[Acetyl(3,3,3-trifluoropropyl)amino]phenyl]-N-[(2-methyl-3-pyridyl)methyl]pyridine-3-carboxamide]	3990 nM	A (A = <33% inhibition)	
CCC(=O)N(C)c1ccc(-c2ccc(C(=O)N(C)Cc3cccnc3)cn2)cc1C [Compound I-496, N-methyl-6-[3-methyl-4-[methyl(propanoyl)amino]phenyl]-N-(3-pyridylmethyl)pyridine-3-carboxamide]	> 15800 nM	A (A = <33% inhibition)	
CC(=O)N(CC(F)F)c1ccc(-c2ccc(C(=O)NCc3cccnc3C)cn2)cc1 [Compound I-449, 6-[4-[acetyl(2,2-difluoroethyl)amino]phenyl]-N-[(2-methyl-3-pyridyl)methyl]pyridine-3-carboxamide]	5180 nM	A (A = <33% inhibition)	
CC(=O)N(CC(C)C)c1ccc(-c2ccc(C(=O)NCc3cccnc3C)cn2)cc1C [Compound I-454, 6-[4-[acetyl(isobutyl)amino]-3-methyl-phenyl]-N-[(2-methyl-3-pyridyl)methyl]pyridine-3-carboxamide]	2140 nM	A (A = <33% inhibition)	
CC(C)CN(C(=O)C(F)F)c1ccc(-c2ccc(C(=O)NCc3cccnc3)cn2)cc1 [Compound I-468, 6-[4-[(2,2-Difluoroacetyl)-isobutyl-amino]phenyl]-N-(3-pyridylmethyl)pyridine-3-carboxamide]	33.3 nM	B (B = ≥33 to <66% inhibition)	
